Laboratory results as given in publication PMC8765293, “Inhibitor-Resistant Mutants Give Important Insights into Candida albicans ABC Transporter Cdr1 Substrate Specificity and Help Elucidate Efflux Pump Inhibition” (Antimicrobial Agents and Chemotherapy, 2022).
Values after ≈ are worked out from the molar mass of the structure shown. Read-outs that look alike come from different tables or passages of the source.

Assays:
AD/CDR1-M639I = experiment: MIC, modified CLSI M27-A3 broth microdilution; settings: for Fold-reduced resistance level (MIC) relative to AD/CDR1: M639I, 1 = no change; for MIC: Saccharomyces cerevisiae, read-out: MIC (drug susceptibility)
AD/CDR1-G521R = experiment: MIC, modified CLSI M27-A3 broth microdilution; settings: for Fold-reduced resistance level (MIC) relative to AD/CDR1: G521R, 1 = no change; for MIC: Saccharomyces cerevisiae, read-out: MIC (drug susceptibility)
AD/CDR1-T1355N = experiment: MIC, modified CLSI M27-A3 broth microdilution; settings: for MIC: Saccharomyces cerevisiae, read-out: MIC (drug susceptibility); for Fold-reduced resistance level (MIC) relative to AD/CDR1: T1355N, 1 = no change
[1] = system: AD/pABC3 (empty vector control, sensitive strain); experiment: microbe, parasite or virus in culture; settings: Saccharomyces cerevisiae
[2] = system: AD/CDR1 (AD1-8u- overexpressing wt Cdr1); experiment: MIC, modified CLSI M27-A3 broth microdilution; settings: Saccharomyces cerevisiae, read-out: MIC (drug susceptibility)
AD/CDR1-A713P = experiment: MIC, modified CLSI M27-A3 broth microdilution; settings: for Fold-reduced resistance level (MIC) relative to AD/CDR1: A713P, 1 = no change; for MIC: Saccharomyces cerevisiae, read-out: MIC (drug susceptibility)
[3] = target: wt Cdr1 (FLC efflux of AD/CDR1 cells) (Candida albicans, UniProt Q5ANA3); settings: for lowest inhibitor concentration necessary to achieve the lowest MICFLC / lowest MICFLC in the presence of inhibitor: CDR1; for lowest MICFLC in the presence of inhibitor: FLC 5 to 640 mg/L tested
Sequence of wt Cdr1 (FLC efflux of AD/CDR1 cells) (Q5ANA3 whole entry): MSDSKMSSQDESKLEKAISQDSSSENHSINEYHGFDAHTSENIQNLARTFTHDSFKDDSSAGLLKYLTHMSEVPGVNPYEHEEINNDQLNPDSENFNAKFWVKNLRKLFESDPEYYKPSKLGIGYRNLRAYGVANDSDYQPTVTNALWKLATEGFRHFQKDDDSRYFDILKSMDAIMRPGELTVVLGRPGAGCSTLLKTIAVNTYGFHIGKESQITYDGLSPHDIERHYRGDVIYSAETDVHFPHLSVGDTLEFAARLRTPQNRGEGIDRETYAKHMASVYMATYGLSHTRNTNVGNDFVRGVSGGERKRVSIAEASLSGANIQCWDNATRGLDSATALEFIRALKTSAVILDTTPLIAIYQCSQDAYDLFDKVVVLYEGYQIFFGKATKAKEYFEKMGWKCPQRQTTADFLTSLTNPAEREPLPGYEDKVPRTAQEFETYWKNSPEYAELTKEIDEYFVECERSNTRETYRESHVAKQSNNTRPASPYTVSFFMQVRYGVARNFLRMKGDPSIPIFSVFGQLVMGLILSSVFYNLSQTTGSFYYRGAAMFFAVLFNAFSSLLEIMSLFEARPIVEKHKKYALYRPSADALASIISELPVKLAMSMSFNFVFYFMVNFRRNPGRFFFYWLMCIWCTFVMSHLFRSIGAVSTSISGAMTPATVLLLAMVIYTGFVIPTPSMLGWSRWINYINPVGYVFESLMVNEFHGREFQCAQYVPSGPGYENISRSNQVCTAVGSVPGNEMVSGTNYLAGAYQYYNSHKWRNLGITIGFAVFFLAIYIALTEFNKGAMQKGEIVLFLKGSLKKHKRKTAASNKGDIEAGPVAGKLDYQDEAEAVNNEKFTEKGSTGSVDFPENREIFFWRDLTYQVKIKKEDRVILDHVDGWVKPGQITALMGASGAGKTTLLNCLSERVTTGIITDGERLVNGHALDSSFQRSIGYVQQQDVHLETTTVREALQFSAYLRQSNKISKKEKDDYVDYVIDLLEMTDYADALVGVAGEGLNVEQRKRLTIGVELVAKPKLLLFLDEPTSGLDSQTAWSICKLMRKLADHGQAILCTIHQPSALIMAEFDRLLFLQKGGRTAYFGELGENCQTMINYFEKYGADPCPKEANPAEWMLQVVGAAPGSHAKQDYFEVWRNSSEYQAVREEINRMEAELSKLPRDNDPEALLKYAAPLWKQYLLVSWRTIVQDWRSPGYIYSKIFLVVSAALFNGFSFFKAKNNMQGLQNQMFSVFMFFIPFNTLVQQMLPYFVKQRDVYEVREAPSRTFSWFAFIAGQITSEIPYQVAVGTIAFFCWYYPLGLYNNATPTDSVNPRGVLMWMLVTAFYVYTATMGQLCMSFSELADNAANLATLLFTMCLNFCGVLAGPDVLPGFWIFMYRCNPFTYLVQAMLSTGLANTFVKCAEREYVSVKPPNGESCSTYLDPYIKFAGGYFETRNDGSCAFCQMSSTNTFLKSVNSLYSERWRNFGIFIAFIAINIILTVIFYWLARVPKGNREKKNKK

[4] = system: AD/pABC3 (empty vector control, sensitive strain); settings: cited from earlier work
wt Cdr1 ATPase activity = wt Cdr1 ATPase activity (Candida albicans, UniProt Q5ANA3); experiment: biochemical; settings: for Vmax of ATPase activity in the presence of inhibitor: CDR1; for type of inhibition of ATPase activity (Lineweaver-Burk): wt Cdr1
Sequence of wt Cdr1 ATPase activity (Q5ANA3 whole entry, the tested form may be a part): as the sequence (Q5ANA3 whole entry) above

[5] = target: Cdr1-T1355N (FLC transport) (Candida albicans, UniProt Q5ANA3, T1355N); experiment: Agarose diffusion FLC chemosensitization assay; type: cell-based; settings: 0.25× MICFLC, disc
Experimental: (§1) Compounds were tested for inhibition of FLC transport by yeast strains overexpressing Cdr1 or Cdr1 mutations.

[6] = target: Cdr1-G521R (FLC transport) (Candida albicans, UniProt Q5ANA3, G521R); experiment: Agarose diffusion FLC chemosensitization assay; type: cell-based; settings: 0.25× MICFLC, disc
Sequence of Cdr1-G521R (FLC transport) (Q5ANA3 whole entry G521R, the tested form may be a part): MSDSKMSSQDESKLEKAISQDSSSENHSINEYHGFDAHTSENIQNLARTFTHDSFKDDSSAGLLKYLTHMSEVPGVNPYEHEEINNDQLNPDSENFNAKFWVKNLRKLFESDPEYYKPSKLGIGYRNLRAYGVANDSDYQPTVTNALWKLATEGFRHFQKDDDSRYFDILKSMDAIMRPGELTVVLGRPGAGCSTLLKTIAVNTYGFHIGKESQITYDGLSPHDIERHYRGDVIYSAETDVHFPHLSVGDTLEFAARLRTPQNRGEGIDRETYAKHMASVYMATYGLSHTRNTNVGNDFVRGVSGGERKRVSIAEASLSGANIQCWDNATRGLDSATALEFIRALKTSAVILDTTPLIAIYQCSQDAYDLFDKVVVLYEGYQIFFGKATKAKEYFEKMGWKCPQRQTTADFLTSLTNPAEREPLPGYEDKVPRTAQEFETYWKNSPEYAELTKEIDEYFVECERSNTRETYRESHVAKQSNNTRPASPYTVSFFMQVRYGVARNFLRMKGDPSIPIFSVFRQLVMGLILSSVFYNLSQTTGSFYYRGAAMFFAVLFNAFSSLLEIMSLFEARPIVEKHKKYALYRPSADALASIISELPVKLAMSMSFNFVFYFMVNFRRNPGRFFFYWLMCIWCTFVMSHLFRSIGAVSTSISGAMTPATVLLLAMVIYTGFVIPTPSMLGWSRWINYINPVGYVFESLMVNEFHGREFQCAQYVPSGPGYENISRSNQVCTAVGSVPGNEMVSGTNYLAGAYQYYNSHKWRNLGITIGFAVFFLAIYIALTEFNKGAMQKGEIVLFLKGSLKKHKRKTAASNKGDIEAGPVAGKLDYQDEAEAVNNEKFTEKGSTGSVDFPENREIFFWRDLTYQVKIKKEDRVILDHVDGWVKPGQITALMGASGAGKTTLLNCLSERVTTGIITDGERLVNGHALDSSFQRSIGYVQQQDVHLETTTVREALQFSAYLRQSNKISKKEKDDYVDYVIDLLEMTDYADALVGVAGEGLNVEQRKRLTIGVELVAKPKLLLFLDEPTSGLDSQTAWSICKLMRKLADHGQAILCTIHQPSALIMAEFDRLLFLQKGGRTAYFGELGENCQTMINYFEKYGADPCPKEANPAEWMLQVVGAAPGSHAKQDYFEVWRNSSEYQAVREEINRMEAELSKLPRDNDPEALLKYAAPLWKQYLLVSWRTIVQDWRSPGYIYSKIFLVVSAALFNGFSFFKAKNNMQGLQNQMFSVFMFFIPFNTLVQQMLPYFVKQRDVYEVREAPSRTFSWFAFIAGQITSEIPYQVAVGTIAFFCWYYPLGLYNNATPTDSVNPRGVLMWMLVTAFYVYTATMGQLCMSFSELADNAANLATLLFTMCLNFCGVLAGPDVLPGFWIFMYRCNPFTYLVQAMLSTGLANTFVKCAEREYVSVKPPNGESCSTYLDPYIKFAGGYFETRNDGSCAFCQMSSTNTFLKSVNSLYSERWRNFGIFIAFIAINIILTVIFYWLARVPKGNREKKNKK
Experimental: as §1

[7] = target: Cdr1-A713P (FLC transport) (Candida albicans, UniProt Q5ANA3, A713P); experiment: Agarose diffusion FLC chemosensitization assay; type: cell-based; settings: 0.25× MICFLC, disc
Experimental: as §1

[8] = target: Cdr1-M639I (FLC transport) (Candida albicans, UniProt Q5ANA3, M639I); experiment: Agarose diffusion FLC chemosensitization assay; type: cell-based; settings: 0.25× MICFLC, disc
Experimental: as §1

[9] = read-out: MIC (drug susceptibility)
[10] = read-out: MIC (drug susceptibility), strain AD/pABC3
[11] = CDR1 (wt), > = only partial inhibition, none = no reduction at highest concentration, read-out: Estimated IC50 for substrate inhibition of the ATPase activity

Molecule	Fold-reduced resistance level (MIC) relative to AD/CDR1 (AD/CDR1-M639I) [fold]	MIC (AD/CDR1-M639I) [µg/mL]	Fold-reduced resistance level (MIC) relative to AD/CDR1 (AD/CDR1-G521R) [fold]	MIC (AD/CDR1-G521R) [µg/mL]	MIC (AD/CDR1-T1355N) [µg/mL]	Fold-reduced resistance level (MIC) relative to AD/CDR1 (AD/CDR1-T1355N) [fold]	MIC [2] [µg/mL]	Fold-reduced resistance level (MIC) relative to AD/CDR1 (AD/CDR1-A713P) [fold]	MIC (AD/CDR1-A713P) [µg/mL]	MIC [1, 10] [µg/mL]	IC50 (wt Cdr1 ATPase activity; [11]) [µM]	further results
C[C@@H]1C[C@@H]([C@H](O)CC2CC(=O)NC(=O)C2)C(=O)[C@@H](C)C1 [CHX, cycloheximide]	2	1 (≈ 3.55 µM)	2	1 (≈ 3.55 µM)	2 (≈ 7.11 µM)	1	2 (≈ 7.11 µM)	2	1 (≈ 3.55 µM)			MIC [1, 9]: 0.016 µg/mL (≈ 0.0569 µM)
CC[C@@H]([C@H](C)O)n1ncn(-c2ccc(N3CCN(c4ccc(OC[C@@H]5CO[C@@](Cn6cncn6)(c6ccc(F)cc6F)C5)cc4)CC3)cc2)c1=O [PSC, posaconazole]	16	2 (≈ 2.85 µM)		0.063 (≈ 0.0899 µM)	2 (≈ 2.85 µM)	16	32 (≈ 45.7 µM)		1 (≈ 1.43 µM)	0.016 (≈ 0.0228 µM)		
beauvericin												FICI (inhibitor/FLC combination) [3]: <0.13; lowest inhibitor concentration necessary to achieve the lowest MICFLC [3]: 1.25 µM; lowest MICFLC in the presence of inhibitor [3]: 5 mg/L; synergy with the Cdr1 substrates FLC and R6G [4]: no synergy; Vmax of ATPase activity in the presence of inhibitor (wt Cdr1 ATPase activity; [I] 0.2 μM): 132 nmol/min/mg; Vmax of ATPase activity in the presence of inhibitor (wt Cdr1 ATPase activity; [I] 0.5 μM): 63 nmol/min/mg; type of inhibition of ATPase activity (Lineweaver-Burk) (wt Cdr1 ATPase activity): noncompetitive inhibition; susceptibility of FLC transport to inhibitor on agar [5]: slightly more resistant; susceptibility of FLC transport to inhibitor on agar [6]: resistant; susceptibility of FLC transport to inhibitor on agar [7]: remained susceptible
CC/N=c1\cc2oc3cc(NCC)c(C)cc3c(-c3ccccc3C(=O)OCC)c-2cc1C [R6G, rhodamine 6G]	2	16 (≈ 36.2 µM)	8	4 (≈ 9.04 µM)	32 (≈ 72.3 µM)	1	32 (≈ 72.3 µM)		32 (≈ 72.3 µM)	0.5 (≈ 1.13 µM)	32	
CCC(C)n1ncn(-c2ccc(N3CCN(c4ccc(OCC5COC(Cn6cncn6)(c6ccc(Cl)cc6Cl)O5)cc4)CC3)cc2)c1=O (stereo not shown) [ITC, itraconazole]	2	16 (≈ 22.7 µM)	128	0.25 (≈ 0.354 µM)	16 (≈ 22.7 µM)	2	32 (≈ 45.3 µM)		1 (≈ 1.42 µM)	0.031 (≈ 0.0439 µM)	> 32	
C=CC[C@@H]1/C=C(\C)C[C@H](C)C[C@H](OC)[C@H]2O[C@@](O)(C(=O)C(=O)N3CCCC[C@H]3C(=O)O[C@H](/C(C)=C/[C@@H]3CC[C@@H](O)[C@H](OC)C3)[C@H](C)[C@@H](O)CC1=O)[C@H](C)C[C@@H]2OC [FK506]												FICI (inhibitor/FLC combination) [3]: <0.26; IC50 [3]: 2.5 µM; lowest inhibitor concentration necessary to achieve the lowest MICFLC [3]: 40 µM; lowest MICFLC in the presence of inhibitor [3]: 5 mg/L; synergy with the Cdr1 substrates FLC and R6G [4]: no synergy; Ki (wt Cdr1 ATPase activity; CDR1 (wt), Dixon plot, read-out: Ki (Cdr1 ATPase activity)): 1.21 ± 0.24 µM; IC50 (wt Cdr1 ATPase activity; CDR1 (wt), from Fig. 4, read-out: IC50 for inhibition of Cdr1 ATPase activity): 1.25 µM; Vmax of ATPase activity in the presence of inhibitor (wt Cdr1 ATPase activity; [I] 0.5 μM): 233 nmol/min/mg; Vmax of ATPase activity in the presence of inhibitor (wt Cdr1 ATPase activity; [I] 1.0 μM): 164 nmol/min/mg; type of inhibition of ATPase activity (Lineweaver-Burk) (wt Cdr1 ATPase activity): noncompetitive inhibition; susceptibility of FLC transport to inhibitor on agar [5]: remained susceptible; susceptibility of FLC transport to inhibitor on agar [6]: resistant; susceptibility of FLC transport to inhibitor on agar [8]: remained susceptible; susceptibility of FLC transport to inhibitor on agar [7]: resistant
CC(=O)N1CCN(c2ccc(OCC3COC(Cn4ccnc4)(c4ccc(Cl)cc4Cl)O3)cc2)CC1 (stereo not shown) [KTC, ketoconazole]	2	4 (≈ 7.53 µM)		0.125 (≈ 0.235 µM)	4 (≈ 7.53 µM)	2	8 (≈ 15.1 µM)	8	1 (≈ 1.88 µM)		13	MIC [1, 9]: 0.008 µg/mL (≈ 0.0151 µM)
CO[C@@H]1C[C@@H](C[C@H]2CC[C@H](C)[C@H]([C@@H](C)C(=O)O)O2)O[C@]2(O[C@](C)([C@H]3CC[C@@](C)([C@@H]4O[C@@H]([C@H]5O[C@@](O)(CO)[C@H](C)C[C@@H]5C)C[C@@H]4C)O3)C[C@H]2C)[C@@H]1C [NIG, nigericin]	1	128 (≈ 177 µM)		0.25 (≈ 0.345 µM)	128 (≈ 177 µM)	1	128 (≈ 177 µM)	16	8 (≈ 11 µM)	0.063 (≈ 0.0869 µM)	> 256	
